Measured values published in ChEMBL document CHEMBL5465560, “Selectivity Literature for EUbOPEN Chemogenomic Library” (2024).

Key:
[1] = target: T1, Discoidin domain-containing receptor 2 (Homo sapiens) (UniProt Q16832); test: Selectivity interaction (KinomeScan (DiscoverX)) EUB0000666a DDR2; settings: at 10 µM
T1 sequence (whole entry): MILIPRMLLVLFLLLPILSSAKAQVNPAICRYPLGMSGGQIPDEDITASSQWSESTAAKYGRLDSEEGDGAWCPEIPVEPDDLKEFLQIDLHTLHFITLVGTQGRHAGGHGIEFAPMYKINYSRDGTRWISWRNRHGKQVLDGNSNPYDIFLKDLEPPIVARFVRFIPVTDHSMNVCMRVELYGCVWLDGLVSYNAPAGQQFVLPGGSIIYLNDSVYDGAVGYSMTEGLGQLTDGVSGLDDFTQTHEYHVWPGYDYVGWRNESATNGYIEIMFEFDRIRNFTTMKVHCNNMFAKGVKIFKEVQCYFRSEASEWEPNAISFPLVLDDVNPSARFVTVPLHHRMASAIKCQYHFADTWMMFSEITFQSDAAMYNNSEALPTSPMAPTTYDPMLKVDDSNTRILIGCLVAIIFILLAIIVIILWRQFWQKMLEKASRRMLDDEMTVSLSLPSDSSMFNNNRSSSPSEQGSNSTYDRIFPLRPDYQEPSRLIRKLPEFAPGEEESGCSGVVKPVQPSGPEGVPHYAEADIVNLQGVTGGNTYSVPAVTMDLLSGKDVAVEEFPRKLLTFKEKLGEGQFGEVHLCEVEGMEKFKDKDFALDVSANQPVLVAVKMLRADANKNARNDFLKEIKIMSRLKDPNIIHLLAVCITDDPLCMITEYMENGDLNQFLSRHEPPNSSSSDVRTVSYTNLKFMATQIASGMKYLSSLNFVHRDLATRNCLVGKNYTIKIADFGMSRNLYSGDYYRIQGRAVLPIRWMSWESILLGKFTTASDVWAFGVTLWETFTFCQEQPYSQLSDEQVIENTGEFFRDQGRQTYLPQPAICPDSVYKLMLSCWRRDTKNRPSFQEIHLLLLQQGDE

[2] = target: Mitogen-activated protein kinase kinase kinase 11 (Homo sapiens) (UniProt Q16584); test: Selectivity interaction (Kinase panel (Invitrogen)) EUB0000639a MAP3K11; settings: at 200 nM
Chain of Mitogen-activated protein kinase kinase kinase 11 (Homo sapiens) (Q16584 whole entry, looked up): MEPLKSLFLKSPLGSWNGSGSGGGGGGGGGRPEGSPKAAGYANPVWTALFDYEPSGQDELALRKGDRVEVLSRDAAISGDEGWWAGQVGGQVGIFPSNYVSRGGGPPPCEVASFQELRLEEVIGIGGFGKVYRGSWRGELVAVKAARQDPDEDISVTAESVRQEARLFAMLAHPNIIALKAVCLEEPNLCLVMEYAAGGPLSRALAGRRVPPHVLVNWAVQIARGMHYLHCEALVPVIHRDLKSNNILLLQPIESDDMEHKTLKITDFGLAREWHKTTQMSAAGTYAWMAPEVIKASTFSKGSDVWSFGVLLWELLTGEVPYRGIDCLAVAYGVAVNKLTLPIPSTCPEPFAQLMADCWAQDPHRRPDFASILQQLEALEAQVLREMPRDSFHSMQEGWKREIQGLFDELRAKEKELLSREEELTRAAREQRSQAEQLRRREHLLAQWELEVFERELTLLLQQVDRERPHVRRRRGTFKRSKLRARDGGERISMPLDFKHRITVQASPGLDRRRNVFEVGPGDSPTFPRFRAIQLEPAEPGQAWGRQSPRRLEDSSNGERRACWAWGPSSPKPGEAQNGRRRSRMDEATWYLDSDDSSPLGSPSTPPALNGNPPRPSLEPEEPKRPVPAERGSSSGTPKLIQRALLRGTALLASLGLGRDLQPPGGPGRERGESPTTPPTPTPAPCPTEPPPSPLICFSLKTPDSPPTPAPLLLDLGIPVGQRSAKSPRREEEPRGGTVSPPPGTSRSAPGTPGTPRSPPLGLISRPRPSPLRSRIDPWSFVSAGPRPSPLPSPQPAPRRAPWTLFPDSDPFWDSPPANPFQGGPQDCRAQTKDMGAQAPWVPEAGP

[3] = target: Sodium channel protein type 2 subunit alpha (Homo sapiens) (UniProt Q99250); test: Selectivity interaction (Panel of non-epigenetic targets (kinases, GPCRs, ion channels, and transporters, Eurofins) ) EUB0000271b SCN2A; settings: at 1 µM
[4] = target: Dual specificity protein kinase CLK2 (Homo sapiens, UniProt P49760); test: Selectivity interaction (KinomeScan (DiscoverX)) EUB0000595a CLK2; settings: at 10 µM
Chain of Dual specificity protein kinase CLK2 (P49760 whole entry, looked up, canonical isoform): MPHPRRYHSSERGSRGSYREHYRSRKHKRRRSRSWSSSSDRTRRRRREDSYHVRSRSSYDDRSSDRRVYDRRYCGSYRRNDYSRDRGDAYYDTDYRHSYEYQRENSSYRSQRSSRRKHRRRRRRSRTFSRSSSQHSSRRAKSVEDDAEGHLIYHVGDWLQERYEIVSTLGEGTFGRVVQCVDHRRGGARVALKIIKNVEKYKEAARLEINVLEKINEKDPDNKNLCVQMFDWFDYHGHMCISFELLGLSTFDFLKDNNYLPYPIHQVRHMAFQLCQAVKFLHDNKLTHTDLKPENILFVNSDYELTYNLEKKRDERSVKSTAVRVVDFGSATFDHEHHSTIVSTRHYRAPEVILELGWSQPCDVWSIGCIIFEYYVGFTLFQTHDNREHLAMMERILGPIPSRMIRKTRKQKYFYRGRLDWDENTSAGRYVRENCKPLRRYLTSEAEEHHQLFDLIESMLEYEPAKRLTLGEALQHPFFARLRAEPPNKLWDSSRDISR

[5] = target: Phosphatidylinositol 4,5-bisphosphate 3-kinase catalytic subunit gamma isoform (Homo sapiens) (UniProt P48736); test: Selectivity interaction (KinomeScan (DiscoverX)) EUB0000595a PIK3CG; settings: at 10 µM
Chain of Phosphatidylinositol 4,5-bisphosphate 3-kinase catalytic subunit gamma isoform (Homo sapiens) (P48736 whole entry, looked up, canonical isoform): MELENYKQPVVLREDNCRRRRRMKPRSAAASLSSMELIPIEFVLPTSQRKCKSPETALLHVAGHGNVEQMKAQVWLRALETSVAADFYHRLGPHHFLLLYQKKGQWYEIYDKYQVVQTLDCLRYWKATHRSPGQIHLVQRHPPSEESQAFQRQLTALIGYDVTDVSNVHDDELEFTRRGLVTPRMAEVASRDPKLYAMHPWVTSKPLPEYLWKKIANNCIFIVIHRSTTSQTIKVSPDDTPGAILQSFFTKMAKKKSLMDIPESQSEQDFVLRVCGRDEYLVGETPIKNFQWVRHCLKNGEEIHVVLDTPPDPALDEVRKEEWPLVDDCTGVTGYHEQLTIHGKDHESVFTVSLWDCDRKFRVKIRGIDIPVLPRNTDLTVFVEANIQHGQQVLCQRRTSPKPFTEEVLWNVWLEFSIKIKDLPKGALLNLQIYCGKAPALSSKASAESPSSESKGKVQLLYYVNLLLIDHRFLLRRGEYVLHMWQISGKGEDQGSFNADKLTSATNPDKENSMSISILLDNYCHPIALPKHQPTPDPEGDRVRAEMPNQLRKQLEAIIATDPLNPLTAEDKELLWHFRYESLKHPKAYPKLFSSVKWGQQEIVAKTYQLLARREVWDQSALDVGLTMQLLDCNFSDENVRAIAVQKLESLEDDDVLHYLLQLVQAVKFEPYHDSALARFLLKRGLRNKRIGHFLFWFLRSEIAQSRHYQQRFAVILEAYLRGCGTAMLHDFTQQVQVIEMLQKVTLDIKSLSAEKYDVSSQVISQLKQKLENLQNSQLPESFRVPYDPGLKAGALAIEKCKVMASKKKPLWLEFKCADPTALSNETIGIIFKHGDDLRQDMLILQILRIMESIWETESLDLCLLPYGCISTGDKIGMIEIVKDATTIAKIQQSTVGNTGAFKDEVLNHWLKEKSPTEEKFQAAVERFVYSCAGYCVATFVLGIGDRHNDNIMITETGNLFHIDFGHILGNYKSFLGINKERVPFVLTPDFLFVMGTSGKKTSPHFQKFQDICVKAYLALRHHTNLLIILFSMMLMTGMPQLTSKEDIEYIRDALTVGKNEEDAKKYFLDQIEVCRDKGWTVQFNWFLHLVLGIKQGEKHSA

[6] = target: Mitogen-activated protein kinase kinase kinase 14 (Homo sapiens) (UniProt Q99558); test: Selectivity interaction (KinomeScan (DiscoverX)) EUB0001049a MAP3K14; settings: at 1 µM
Chain of Mitogen-activated protein kinase kinase kinase 14 (Homo sapiens) (Q99558 whole entry, looked up): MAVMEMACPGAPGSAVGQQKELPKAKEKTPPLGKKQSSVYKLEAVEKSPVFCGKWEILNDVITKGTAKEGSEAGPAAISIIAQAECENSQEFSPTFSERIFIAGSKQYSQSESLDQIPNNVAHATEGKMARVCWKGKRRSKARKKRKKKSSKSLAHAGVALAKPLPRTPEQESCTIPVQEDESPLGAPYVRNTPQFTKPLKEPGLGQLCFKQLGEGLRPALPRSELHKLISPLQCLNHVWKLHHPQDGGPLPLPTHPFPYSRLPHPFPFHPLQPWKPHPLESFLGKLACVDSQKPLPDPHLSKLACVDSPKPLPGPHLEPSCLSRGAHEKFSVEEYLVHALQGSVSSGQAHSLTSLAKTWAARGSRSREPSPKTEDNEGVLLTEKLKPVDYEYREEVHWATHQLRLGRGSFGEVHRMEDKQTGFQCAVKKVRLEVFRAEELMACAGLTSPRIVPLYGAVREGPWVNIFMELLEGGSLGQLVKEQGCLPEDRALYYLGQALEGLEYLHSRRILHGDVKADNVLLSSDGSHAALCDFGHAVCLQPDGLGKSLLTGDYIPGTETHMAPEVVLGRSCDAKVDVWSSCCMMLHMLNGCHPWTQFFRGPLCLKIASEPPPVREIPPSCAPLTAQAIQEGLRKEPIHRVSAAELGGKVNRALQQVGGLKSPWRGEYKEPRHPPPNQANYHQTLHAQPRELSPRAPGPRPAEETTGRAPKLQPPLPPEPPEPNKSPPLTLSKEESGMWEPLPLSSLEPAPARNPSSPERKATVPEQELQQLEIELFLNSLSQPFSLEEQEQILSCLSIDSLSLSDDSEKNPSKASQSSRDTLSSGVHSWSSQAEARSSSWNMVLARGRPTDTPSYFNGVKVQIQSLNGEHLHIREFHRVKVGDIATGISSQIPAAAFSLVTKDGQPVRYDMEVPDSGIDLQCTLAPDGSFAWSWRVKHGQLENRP

[7] = target: T2, Mitogen-activated protein kinase 13 (Homo sapiens) (UniProt O15264); test: Selectivity interaction (Kinase panel (DSF assay)) EUB0001558a MAPK13
T2 sequence (whole entry): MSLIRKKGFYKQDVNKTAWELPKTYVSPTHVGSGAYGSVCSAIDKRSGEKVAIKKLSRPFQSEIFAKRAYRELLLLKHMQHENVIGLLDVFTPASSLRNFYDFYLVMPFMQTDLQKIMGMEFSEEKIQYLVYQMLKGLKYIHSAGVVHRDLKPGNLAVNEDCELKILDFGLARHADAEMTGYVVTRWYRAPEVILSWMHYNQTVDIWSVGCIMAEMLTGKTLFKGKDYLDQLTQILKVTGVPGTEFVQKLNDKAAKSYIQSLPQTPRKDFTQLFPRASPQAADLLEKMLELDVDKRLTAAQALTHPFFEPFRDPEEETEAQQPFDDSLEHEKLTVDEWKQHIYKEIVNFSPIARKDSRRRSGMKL

[8] = target: Serine/threonine-protein kinase RIO2 (Homo sapiens) (UniProt Q9BVS4); test: Selectivity interaction (KinomeScan (DiscoverX)) EUB0000655a RIOK2; settings: at 10 µM
[9] = target: Tyrosine-protein kinase SYK (Homo sapiens, UniProt P43405); test: Selectivity interaction (KinomeScan (DiscoverX)) EUB0000045b SYK
[10] = target: Serine/threonine-protein kinase MRCK beta (Homo sapiens) (UniProt Q9Y5S2); test: Selectivity interaction (KinomeScan (DiscoverX)) EUB0000229b CDC42BPB; settings: at 10 µM
Chain of Serine/threonine-protein kinase MRCK beta (Homo sapiens) (Q9Y5S2 whole entry): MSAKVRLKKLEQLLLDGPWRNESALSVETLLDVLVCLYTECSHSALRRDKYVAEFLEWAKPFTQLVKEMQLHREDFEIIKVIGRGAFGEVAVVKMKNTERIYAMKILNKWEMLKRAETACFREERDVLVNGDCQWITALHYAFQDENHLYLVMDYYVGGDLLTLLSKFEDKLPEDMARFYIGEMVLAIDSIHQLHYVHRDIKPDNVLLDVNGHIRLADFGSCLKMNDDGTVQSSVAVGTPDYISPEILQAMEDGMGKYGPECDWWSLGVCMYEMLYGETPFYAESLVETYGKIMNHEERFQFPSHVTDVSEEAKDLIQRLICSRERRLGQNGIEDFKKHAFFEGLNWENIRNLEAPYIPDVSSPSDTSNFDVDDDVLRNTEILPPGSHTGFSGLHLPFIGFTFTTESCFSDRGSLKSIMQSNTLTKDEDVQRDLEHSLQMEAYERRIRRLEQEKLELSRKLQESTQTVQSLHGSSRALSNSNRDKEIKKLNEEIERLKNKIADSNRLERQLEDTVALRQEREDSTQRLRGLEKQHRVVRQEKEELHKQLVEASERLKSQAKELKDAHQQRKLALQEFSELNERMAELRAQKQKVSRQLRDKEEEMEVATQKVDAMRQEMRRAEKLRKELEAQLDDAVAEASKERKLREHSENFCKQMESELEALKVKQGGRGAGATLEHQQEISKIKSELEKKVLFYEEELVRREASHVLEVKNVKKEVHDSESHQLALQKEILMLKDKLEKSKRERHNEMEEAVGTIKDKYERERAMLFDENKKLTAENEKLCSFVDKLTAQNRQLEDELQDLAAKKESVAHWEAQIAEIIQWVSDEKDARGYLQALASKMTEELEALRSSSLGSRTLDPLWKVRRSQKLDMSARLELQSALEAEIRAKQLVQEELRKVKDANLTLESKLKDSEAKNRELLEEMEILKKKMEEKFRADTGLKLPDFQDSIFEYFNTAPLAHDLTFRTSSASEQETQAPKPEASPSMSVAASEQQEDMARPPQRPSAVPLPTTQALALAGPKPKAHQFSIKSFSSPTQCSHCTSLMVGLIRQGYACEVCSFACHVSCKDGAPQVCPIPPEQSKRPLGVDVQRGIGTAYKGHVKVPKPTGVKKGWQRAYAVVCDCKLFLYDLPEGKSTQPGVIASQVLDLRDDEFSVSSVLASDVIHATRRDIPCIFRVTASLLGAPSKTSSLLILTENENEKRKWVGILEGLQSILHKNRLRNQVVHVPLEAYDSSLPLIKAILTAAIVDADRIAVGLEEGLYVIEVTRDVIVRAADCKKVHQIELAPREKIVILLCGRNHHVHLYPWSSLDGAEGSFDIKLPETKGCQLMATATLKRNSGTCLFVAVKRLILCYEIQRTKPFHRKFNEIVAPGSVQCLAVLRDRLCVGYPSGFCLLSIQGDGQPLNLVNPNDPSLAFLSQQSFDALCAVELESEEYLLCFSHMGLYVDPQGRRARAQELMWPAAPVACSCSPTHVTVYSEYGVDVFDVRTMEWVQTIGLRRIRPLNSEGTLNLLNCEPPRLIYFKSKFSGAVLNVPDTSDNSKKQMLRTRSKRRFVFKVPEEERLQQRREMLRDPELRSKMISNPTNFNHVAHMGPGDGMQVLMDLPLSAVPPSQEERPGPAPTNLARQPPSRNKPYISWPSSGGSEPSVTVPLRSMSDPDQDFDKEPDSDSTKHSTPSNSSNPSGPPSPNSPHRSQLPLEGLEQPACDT

[11] = target: T3, Serine/threonine-protein kinase Nek2 (Homo sapiens) (UniProt P51955); test: Selectivity interaction (KinomeScan (DiscoverX)) EUB0000092b NEK2; settings: at 10 µM
T3 sequence (whole entry): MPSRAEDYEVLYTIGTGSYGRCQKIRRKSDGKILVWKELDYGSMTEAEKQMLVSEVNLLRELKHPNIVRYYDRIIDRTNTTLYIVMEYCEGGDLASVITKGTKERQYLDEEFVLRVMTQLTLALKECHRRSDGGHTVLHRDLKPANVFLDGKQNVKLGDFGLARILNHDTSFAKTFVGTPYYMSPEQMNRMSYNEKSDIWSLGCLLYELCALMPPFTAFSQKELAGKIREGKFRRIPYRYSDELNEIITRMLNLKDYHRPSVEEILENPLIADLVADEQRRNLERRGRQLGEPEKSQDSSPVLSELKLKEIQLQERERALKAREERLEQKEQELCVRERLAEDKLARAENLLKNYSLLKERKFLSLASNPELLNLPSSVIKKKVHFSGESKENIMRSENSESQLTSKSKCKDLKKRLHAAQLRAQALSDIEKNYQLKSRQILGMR

[12] = target: Insulin receptor-related protein (Homo sapiens) (UniProt P14616); test: Selectivity interaction (KinomeScan (DiscoverX)) EUB0001619a INSRR; settings: at 1 µM

With O=C(NOC[C@H](O)CO)c1ccc(F)c(F)c1Nc1ccc(I)cc1F the % of control [1] was 100%.
CC[C@@H]1[C@H](F)C(=O)N[C@@H]1COc1nccc2cc(C(N)=O)c(OC)cc12 [ZIMLOVISERTIB] gave a % of inhibition [2] of 0.995%.
Cc1cc(C)cc([C@@H]2c3cc(C)ccc3NC(=O)CN2C(=O)c2ccc(Br)s2)c1 was tested, and the % of inhibition [3] was -22%.
COCC(=O)NC/C=C/c1ccc2ncnc(Nc3ccc(Oc4ccc(C)nc4)c(C)c3)c2c1 [CP-724714] showed a % of control [4] of 75% and a % of control [5] of 100%.
COc1cc(Nc2nc(C)cc(-c3cnn4nc(OC)ccc34)n2)cc(C(F)(F)F)c1 showed a % of control [6] of 98%.
CC(C)(O)[C@H](F)CN1Cc2cc(NC(=O)c3cnn4cccnc34)c(N3CCOCC3)cc2C1=O gave a dTM [7] of -0.3 K.
For CN(C)CCOc1ccc(-c2nc(-c3ccncc3)c(-c3ccc4c(c3)CC/C4=N\O)[nH]2)cc1, the % of control [8] was 6%.
Compound C=CC(=O)Nc1cc(-n2c(=O)ccc3cnc4ccc(-c5ccc(NS(C)(=O)=O)cc5)cc4c32)ccc1C has a % of control ([9]; at 1 µM) of 100% and a % of control ([9]; at 10 µM) of 96%.
Compound COc1cc(N(C)c2ccnc3ccc(C(F)(F)F)cc23)cc(OC)c1OC has a % binding [10] of 100%.
Work on CCC(=O)N1CCN(c2ccc(-n3c(=O)ccc4cnc5ccc(-c6cnc7ccccc7c6)cc5c43)cc2C(F)(F)F)CC1 yielded a % of control [11] of 90%.
Work on N#Cc1cccc(-c2c[nH]c3ncnc(N4CCOCC4)c23)c1 yielded a % of control [12] of 100%.
